This is an account of results in patent US20110172147A1, “NEUROPEPTIDE-2 RECEPTOR (Y-2R) AGONISTS” (priority 2009, published 2011).

Where two headings read alike, the source gives them in different places.

The target of this assay is T1, hNPY2R (Homo sapiens, UniProt P49146).
T1 sequence (P49146 1-381): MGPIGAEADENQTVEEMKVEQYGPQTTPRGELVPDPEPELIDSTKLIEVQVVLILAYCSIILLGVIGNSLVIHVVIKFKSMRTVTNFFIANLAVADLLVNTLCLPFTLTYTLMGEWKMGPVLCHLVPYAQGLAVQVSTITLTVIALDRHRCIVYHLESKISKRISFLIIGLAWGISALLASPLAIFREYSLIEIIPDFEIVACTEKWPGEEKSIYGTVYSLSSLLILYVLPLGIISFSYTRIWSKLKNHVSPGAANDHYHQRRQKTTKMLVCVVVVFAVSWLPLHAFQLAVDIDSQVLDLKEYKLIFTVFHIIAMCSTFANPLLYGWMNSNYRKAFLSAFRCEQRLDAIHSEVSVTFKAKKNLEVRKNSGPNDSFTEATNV
The experiment in a line: CaFlux Assay (FLIPR), Y2R. The arrangement: expressed in transfected cells; host or cells: HEK-293 stably transfected with G protein chimera Gαqi9. In kind it is cell-based. Summed up:
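HEK-293 cells stably expressing Gαqi9 and the human receptor, dye-loaded 1 h at 37° C, then compound added on FLIPR. Fluorescence read every 1.5 s for 100 s; peak increase over pre-stimulation baseline, expressed as % of positive-control maximal response.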

Where [1] appears, read: CaFlux (FLIPR), HEK-293 cells with Gαqi9 and human NPY2 receptor; read-out: Y2R EC50 (nM) FLIPR.

On to `CC[C@H](C)[C@H](NC(C)=O)C(=O)N[C@@H](CCCCNC(=O)CCOCCOCCOCCOCCOCCOCCOCCOCCOCCOCCOCCOCCOCCOCCOCCOCCOCCOCCOCCOCCOCCOCCOCCOC)C(=O)N1CCN(c2ccc3ncn(CC(=O)N[C@@H](CCCNC(=N)N)C(=O)N[C@@H](Cc4c[nH]cn4)C(=O)N[C@@H](Cc4ccc(O)cc4)C(=O)N[C@@H](CC(C)C)C(=O)N[C@@H](CC(N)=O)C(=O)N[C@@H](Cc4c[nH]c5ccccc45)C(=O)N[C@H](C(=O)N[C@H](C(=O)N[C@@H](CCCNC(=N)N)C(=O)N[C@@H](CCC(N)=O)C(=O)N(C)[C@@H](CCCNC(=N)N)C(=O)N[C@@H](Cc4ccc(O)cc4)C(N)=O)[C@@H](C)O)C(C)C)c(=O)c3c2)CC1` [Example 21], for which the EC50 (as a rule, the concentration needed to bring the measured effect to its halfway point) under setting [1] was 0.139 nM.
On the same count and under the same terms, as for `CCCCCCCCCCCCCCCCCCCC(=O)N[C@@H](CCS(=O)(=O)O)C(=O)N[C@@H](CCS(=O)(=O)O)C(=O)NCCCC[C@H](NC(=O)[C@@H](NC(=O)CCOCCOCCOCCOCCOCCOCCOCCOCCOCCOCCOCCOCCOCCOCCOCCOCCOCCOCCOCCOCCOCCOCCOCCOC)[C@@H](C)CC)C(=O)N1CCN(c2ccc3ncn(CC(=O)N[C@@H](CCCNC(=N)N)C(=O)NC(Cc4c[nH]cn4)C(=O)N[C@@H](Cc4ccc(O)cc4)C(=O)NC(CC(C)C)C(=O)N[C@@H](CC(N)=O)C(=O)NC(Cc4c[nH]c5ccccc45)C(=O)N[C@H](C(=O)N[C@H](C(=O)N[C@@H](CCCNC(=N)N)C(=O)NC(CCC(N)=O)C(=O)N(C)[C@@H](CCCNC(=N)N)C(=O)NC(Cc4ccc(O)cc4)C(N)=O)[C@@H](C)O)C(C)C)c(=O)c3c2)CC1` (stereo partly drawn) [Example 27], the figure is 9.6 nM; as for `CCCCCCCCCCCCCCCCCCCC(=O)N[C@@H](CCS(=O)(=O)O)C(=O)N[C@@H](CCS(=O)(=O)O)C(=O)NCCCC[C@H](NC(=O)[C@@H](NC(=O)CCOCCOCCOCCOCCOCCOCCOCCOCCOCCOCCOCCOCCOCCOCCOCCOCCOCCOCCOCCOCCOCCOCCOCCOC)[C@@H](C)CC)C(=O)N1CCN(c2ccc3ncn(CC(=O)N[C@@H](CCCNC(N)=O)C(=O)NC(Cc4c[nH]cn4)C(=O)N[C@@H](Cc4ccc(O)cc4)C(=O)NC(CC(C)C)C(=O)N[C@@H](CC(N)=O)C(=O)NC(Cc4c[nH]c5ccccc45)C(=O)N[C@H](C(=O)N[C@H](C(=O)N[C@@H](CCCNC(=N)N)C(=O)NC(CCC(N)=O)C(=O)N(C)[C@@H](CCCNC(=N)N)C(=O)NC(Cc4ccc(O)cc4)C(N)=O)[C@@H](C)O)C(C)C)c(=O)c3c2)CC1` (stereo partly drawn) [Example 28], 11.1 nM.
Take `CCCCCCCCCCCCCCCC(=O)N[C@@H](CCS(=O)(=O)O)C(=O)N[C@@H](CCS(=O)(=O)O)C(=O)NCCCC[C@H](NC(=O)[C@@H](NC(=O)CCOCCOCCOCCOCCOCCOCCOCCOCCOCCOCCOCCOCCOCCOCCOCCOCCOCCOCCOCCOCCOCCOCCOCCOC)[C@@H](C)CC)C(=O)N1CCN(c2ccc3ncn(CC(=O)N[C@@H](CCCNC(=N)N)C(=O)NC(Cc4c[nH]cn4)C(=O)N[C@@H](Cc4ccc(O)cc4)C(=O)NC(CC(C)C)C(=O)N[C@@H](CC(N)=O)C(=O)NC(Cc4c[nH]c5ccccc45)C(=O)N[C@H](C(=O)N[C@H](C(=O)N[C@@H](CCCNC(=N)N)C(=O)NC(CCC(N)=O)C(=O)N(C)[C@@H](CCCNC(=N)N)C(=O)NC(Cc4ccc(O)cc4)C(N)=O)[C@@H](C)O)C(C)C)c(=O)c3c2)CC1` (stereo partly drawn) [Example 29]: under setting [1], the EC50 is 0.156 nM.
For the compound `CCCCCCCCCCCCCCCCCCCC(=O)NCCCCCC(=O)N[C@H](C(=O)N[C@@H](CCCCNC(=O)CCOCCOCCOCCOCCOCCOCCOCCOCCOCCOCCOCCOCCOCCOCCOCCOCCOCCOCCOCCOCCOCCOCCOCCOC)C(=O)N1CCN(c2ccc3ncn(CC(=O)N[C@@H](CCCNC(=N)N)C(=O)N[C@@H](Cc4c[nH]cn4)C(=O)N[C@@H](Cc4ccc(O)cc4)C(=O)N[C@@H](CC(C)C)C(=O)N[C@@H](CC(N)=O)C(=O)N[C@@H](Cc4c[nH]c5ccccc45)C(=O)N[C@H](C(=O)N[C@H](C(=O)N[C@@H](CCCNC(=N)N)C(=O)N[C@@H](CCC(N)=O)C(=O)N(C)[C@@H](CCCNC(=N)N)C(=O)N[C@@H](Cc4ccc(O)cc4)C(N)=O)[C@@H](C)O)C(C)C)c(=O)c3c2)CC1)[C@@H](C)CC` [Example 35], the EC50 under setting [1] was 0.097 nM.
Turning to `CC[C@H](C)[C@H](NC(=O)[C@H](CCC(=O)O)NC(=O)[C@H](CCC(=O)O)NC(=O)CCCCCCCCCCCCCCC(=O)O)C(=O)N[C@@H](CCCCNC(=O)CCOCCOCCOCCOCCOCCOCCOCCOCCOCCOCCOCCOCCOCCOCCOCCOC)C(=O)N1CCN(c2ccc3ncn(CC(=O)N[C@@H](CCCNC(=N)N)C(=O)N[C@@H](Cc4c[nH]cn4)C(=O)N[C@@H](Cc4ccc(O)cc4)C(=O)N[C@@H](CC(C)C)C(=O)N[C@@H](CC(N)=O)C(=O)N[C@@H](Cc4c[nH]c5ccccc45)C(=O)N[C@H](C(=O)N[C@H](C(=O)N[C@@H](CCCNC(=N)N)C(=O)N[C@@H](CCC(N)=O)C(=O)N(C)[C@@H](CCCNC(=N)N)C(=O)N[C@@H](Cc4ccc(O)cc4)C(N)=O)[C@@H](C)O)C(C)C)c(=O)c3c2)CC1` [Example 54], the EC50 (read-out: Y2R EC50 (nM) FLIPR; CaFlux (FLIPR), HEK-293 cells with Gαqi9 and human NPY2 receptor) came out at 292 nM.
